Results as given in patent US8455665B2, “3-phenoxymethylpyrrolidine compounds” (Theravance, Inc., priority 2009, dated 2013).

Legend:
SERT and NET = conditions: cited from earlier work
SERT [1] = target: T1, SERT (Homo sapiens, UniProt P31645); assay: hSERT membrane radioligand binding assay (3H-citalopram); design: expressed in transfected cells; host or cells: HEK-293; conditions: hSERT membranes (HEK-293), 1.0 nM 3H-citalopram; read-out: SERT pKi (converted)
Summary of the method: (§1)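 HEK-293 membranes stably expressing hNET or hSERT; inhibition of ³H-nisoxetine (hNET) or ³H-citalopram (hSERT) binding in 50 mM Tris-HCl, 120 mM NaCl, 5 mM KCl, pH 7.4, 60 min at 22 °C. Filtration, scintillation counting; nonspecific with 1 μM desipramine (NET) or 1 μM duloxetine (SERT). pKi via Cheng-Prusoff from IC50 and radioligand Kd.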

NET [2] = target: T2, NET (Homo sapiens, UniProt P23975); assay: hNET membrane radioligand binding assay (3H-nisoxetine); design: expressed in transfected cells; host or cells: HEK-293; conditions: hNET membranes (HEK-293), 1.0 nM 3H-nisoxetine; read-out: NET pKi (converted)
Summary of the method: as §1

SERT [3] = target: T1, SERT; assay: hSERT neurotransmitter uptake assay (3H-5-HT); format: cell-based; design: expressed in transfected cells; host or cells: HEK-293; conditions: serotonin reuptake inhibition, HEK-293 hSERT cells, 3H-5-HT (no asterisk); read-out: SERT pIC50 (converted)
Experimental: (§2) Neurotransmitter uptake assays were used to measure inhibition of ^3H-serotonin (^3H-5-HT), ^3H-norepinephrine (^3H-NE), and ^3H-dopamine (^3H-DA) uptake into cells expressing the respective transporter (hSERT, hNET or hDAT) in order to determine the pIC50 values of test compounds at the transporters.
(§3) HEK-293 derived cell lines stably-transfected with hSERT, hNET, or hDAT, respectively, were grown in DMEM medium supplemented with 10% dialyzed FBS (for hSERT) or FBS (for hNET and hDAT), 100 μg/ml penicillin, 100 μg/ml streptomycin, 2 mM L-glutamine and 250 μg/ml of the aminoglycoside antibiotic G418 (for hSERT and hNET) or 800 ug/ml (for hDAT), in a 5% CO2 humidified incubator at 37° C. When cultures reached 80% confluence, the cells were washed thoroughly in PBS (without Ca^2+ and Mg^2+) and lifted with 5 mM EDTA in PBS. Cells were harvested by centrifugation at 1100 rpm for 5 minutes, washed once by resuspension in PBS, then centrifuged. The supernatant was discarded and the cell pellet resuspended, by gentle trituration, in room temperature Krebs-Ringer bicarbonate buffer containing HEPES (10 mM), CaCl2 (2.2 mM), ascorbic acid (200 μM) and pargyline (200 μM), pH 7.4. The final concentration of cells in the cell suspension was 7.5×10^4 cells/ml, 1.25×10^5 cells/ml, and 5.0×10^4 cells/ml for SERT, NET, and DAT cell lines, respectively.
(§4) Neurotransmitter uptake assays were performed in a 96-well assay plate in a total volume of 400 μl assay buffer (Krebs-Ringer bicarbonate buffer containing HEPES (10 mM), CaCl2 (2.2 mM), ascorbic acid (200 μM) and pargyline (200 μM), pH 7.4) with 1.5×10^4 and 2.5×10^4 cells, for SERT, NET, and DAT, respectively. […] Stock solutions (10 mM in DMSO) of test compound were prepared and serial dilutions prepared using 50 mM Tris-HCl, 120 mM NaCl, 5 mM KCl, pH 7.4, 0.1% BSA, 400 μM ascorbic acid. Test compounds were incubated for 30 minutes at 37° C. with the respective cells, prior to addition of radiolabeled neurotransmitter, ^3H-5-HT (20 nM final concentration), ^3H-NE (50 nM final concentration) or ^3H-DA (100 nM final concentration). Non-specific neurotransmitter uptake was determined in the presence of 2.5 μM duloxetine, 2.5 μM desipramine, or 10 uM GBR-12909 (each in Dilution Buffer) for the hSERT, hNET, or hDAT assays, respectively.
(§5) Following a 10 minute incubation, at 37° C., with radioligand, the cells were harvested by rapid filtration over a 96-well UniFilter GF/B plate, pretreated with 1% BSA, and washed 6 times with 650 μl wash buffer (ice cold PBS). Plates were dried overnight at 37° C., ˜45 μl of MicroScint™-20 (Perkin Elmer) added and incorporated radioactivity quantitated via liquid scintillation spectroscopy Inhibition curves were analyzed using GraphPad Prism Software package (GraphPad Software, Inc., San Diego, Calif.). IC50 values were generated from concentration response curves using the Sigmoidal Dose Response (variable slope) algorithm in Prism GraphPad.

NET [4] = target: T2, NET; assay: hNET neurotransmitter uptake assay (3H-NE); format: cell-based; design: expressed in transfected cells; host or cells: HEK-293; conditions: norepinephrine reuptake inhibition, HEK-293 hNET cells, 3H-NE (no asterisk); read-out: NET pIC50 (converted)
Experimental: as §2, §3, §4, §5

T1 sequence (P31645 whole entry): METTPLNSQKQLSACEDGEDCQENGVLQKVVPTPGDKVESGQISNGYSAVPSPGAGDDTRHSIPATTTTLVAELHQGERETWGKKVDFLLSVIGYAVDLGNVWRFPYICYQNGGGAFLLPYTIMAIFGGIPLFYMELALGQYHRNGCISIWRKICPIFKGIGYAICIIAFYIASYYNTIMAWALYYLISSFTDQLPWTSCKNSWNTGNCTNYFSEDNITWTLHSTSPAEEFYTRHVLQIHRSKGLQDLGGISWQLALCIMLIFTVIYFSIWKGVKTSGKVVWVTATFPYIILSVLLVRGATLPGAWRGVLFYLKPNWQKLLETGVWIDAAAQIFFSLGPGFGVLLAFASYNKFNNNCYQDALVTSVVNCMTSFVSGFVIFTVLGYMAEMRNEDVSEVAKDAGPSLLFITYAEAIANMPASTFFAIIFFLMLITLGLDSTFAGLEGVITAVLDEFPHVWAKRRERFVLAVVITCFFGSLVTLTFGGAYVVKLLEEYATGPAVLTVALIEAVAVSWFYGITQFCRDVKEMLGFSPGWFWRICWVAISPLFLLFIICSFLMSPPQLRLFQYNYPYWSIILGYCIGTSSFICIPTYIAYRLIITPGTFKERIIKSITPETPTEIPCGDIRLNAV
T2 sequence (P23975 whole entry): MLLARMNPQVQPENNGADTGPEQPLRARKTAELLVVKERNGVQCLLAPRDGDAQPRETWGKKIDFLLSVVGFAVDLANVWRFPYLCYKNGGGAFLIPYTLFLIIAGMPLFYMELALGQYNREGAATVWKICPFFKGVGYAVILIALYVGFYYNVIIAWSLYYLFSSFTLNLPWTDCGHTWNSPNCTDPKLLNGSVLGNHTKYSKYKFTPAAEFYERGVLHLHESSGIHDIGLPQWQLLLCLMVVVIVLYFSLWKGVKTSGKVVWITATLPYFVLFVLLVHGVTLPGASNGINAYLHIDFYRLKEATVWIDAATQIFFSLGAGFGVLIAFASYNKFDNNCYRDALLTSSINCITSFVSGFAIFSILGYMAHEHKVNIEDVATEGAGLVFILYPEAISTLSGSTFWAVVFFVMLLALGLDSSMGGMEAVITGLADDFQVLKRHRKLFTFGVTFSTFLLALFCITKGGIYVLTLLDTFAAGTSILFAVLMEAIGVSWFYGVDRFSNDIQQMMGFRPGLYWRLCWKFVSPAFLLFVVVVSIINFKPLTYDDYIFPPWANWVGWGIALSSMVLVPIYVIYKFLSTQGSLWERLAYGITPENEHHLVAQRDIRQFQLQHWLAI

Structure (SMILES) | NET selective (SERT and NET) [fold] | Ki (SERT [1]) [nM] | Ki (NET [2]) [nM] | IC50 (SERT [3]) [nM] | IC50 (NET [4]) [nM] | affinity for SERT relative to NET (SERT and NET; Vaishnavi et al. (2004)) | selectivity (measured as pKi) for SERT over NET (SERT and NET) [fold]
CNCC[C@@H](Oc1ccccc1C)c1ccccc1 [Atomoxetine] | 10 | – | – | – | – | – | –
Fc1cccc(O[C@@H](C2CCOCC2)[C@@H]2CCNC2)c1Cl [Example 13-17, (R)-3-[(S)-(2-Chloro-3-fluorophenoxy)(tetrahydropyran-4-yl)methyl]pyrrolidine] | – | ≤ 10 | ≤ 10 | ≤ 10 | ≤ 10 | – | –
FC(F)(F)c1c(Cl)cccc1O[C@H](C1CCOCC1)[C@@H]1CCNC1 [Example 13-20, (R)-3-[(R)-(3-Chloro-2-trifluoromethylphenoxy)(tetrahydropyran-4-yl)-methyl]-pyrrolidine] | – | ≤ 10 | ≤ 10 | ≤ 100 | ≤ 10 | – | –
Clc1ccc(O[C@@H](C2CCOCC2)[C@H]2CCNC2)c(Cl)c1 [Example 13-22, (S)-3-[(S)-(2,4-Dichlorophenoxy)(tetrahydropyran-4-yl)methyl]pyrrolidine] | – | ≤ 100 | ≤ 10 | ≤ 100 | ≤ 10 | – | –
Clc1cccc(Cl)c1O[C@@H](C1CCOCC1)[C@H]1CCNC1 [Example 13-24, (S)-3-[(S)-(2,6-Dichlorophenoxy)(tetrahydropyran-4-yl)methyl]pyrrolidine] | – | ≤ 10 | ≤ 10 | ≤ 10 | ≤ 10 | – | –
Clc1cc(Cl)cc(O[C@H](C2CCOCC2)[C@@H]2CCNC2)c1 [Example 13-29, (R)-3-[(R)-(3,5-Dichlorophenoxy)(tetrahydropyran-4-yl)methyl]pyrrolidine] | – | ≤ 10 | ≤ 10 | ≤ 100 | ≤ 100 | – | –
Clc1cc(Cl)cc(O[C@@H](C2CCOCC2)[C@@H]2CCNC2)c1 [Example 13-30, (R)-3-[(S)-(3,5-Dichlorophenoxy)(tetrahydropyran-4-yl)methyl]pyrrolidine] | – | ≤ 10 | ≤ 10 | ≤ 10 | ≤ 10 | – | –
CNCC[C@H](Oc1cccc2ccccc12)c1cccs1 [duloxetine] | – | – | – | – | – | higher affinity for SERT relative to NET | 10
CCN(CC)C(=O)C1(c2ccccc2)CC1CN (stereo not shown) [milnacipran] | – | – | – | – | – | – | 2.5
